These are literature values, as cited in patent US20240105341A1, “SYSTEMS AND METHODS FOR ESTIMATING TUMOR GROWTH” (AMGEN INC., priority 2022, published 2024).

Read-outs that look alike come from different tables or passages of the source.

Data set [1] relates to metastatic, castration-resistant prostate cancer (mCRPC). The conditions noted are these: FIRSTANA 2017, phase 3, chemo-naive.
Data set [2] shares this test system. The conditions noted are these: PREVAIL 2014, phase 3, chemo-naive.

For `CC(=O)O[C@@]12CO[C@@H]1C[C@H](O)[C@@]1(C)C(=O)[C@H](O)C3=C(C)[C@@H](OC(=O)[C@H](O)[C@@H](NC(=O)OC(C)(C)C)c4ccccc4)C[C@@](O)([C@@H](OC(=O)c4ccccc4)[C@H]21)C3(C)C` [Doce75], in data set [1], the “CR (number of complete responders)” value was 1, the “Median PFS” value was 5.3 and the “PR + CR (number of responders)” value is 54.
On to `CO[C@H]1C(=O)[C@]2(C)[C@@H](OC)C[C@H]3OC[C@@]3(OC(C)=O)[C@H]2[C@H](OC(=O)c2ccccc2)[C@]2(O)C[C@H](OC(=O)[C@H](O)[C@@H](NC(=O)OC(C)(C)C)c3ccccc3)C(C)=C1C2(C)C` [Caba20], for which, in data set [1], the “CR (number of complete responders)” value was 1, the “Median PFS” value is 4.4 and the “PR + CR (number of responders)” value was 61.
Take `CNC(=O)c1ccc(N2C(=S)N(c3ccc(C#N)c(C(F)(F)F)c3)C(=O)C2(C)C)cc1F` [Enza]: in data set [2], the “CR (number of complete responders)” value was 78 and the “PR + CR (number of responders)” value was 233.
